Test systems include 786-0 renal; HCC-2998 colon; HCT-15 colon; KM12 colon; LOX IMVI melanoma; MDA-MB-435; PC-3 prostate; SK-MEL-28 melanoma; TK-10 renal; UACC-62 melanoma.
What all share (assay): NCI-60 cell line screen, 48 h

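Following 48 hours of exposure in 96-well plates, responses at five concentrations were used to interpolate endpoints linearly. GI50: concentration for 50% inhibition of growth. TGI: concentration producing complete growth inhibition.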

In the case of `Nc1ccncc1/C=C1/C(=O)Nc2ccccc21`, the GI50 in the assay with 786-0 renal was 34.8 µM; in the assay on HCC-2998 colon, 25.3 µM; with HCT-15 colon, 36.5 µM; with KM12 colon it was 25 µM; in the assay on LOX IMVI melanoma it was 28 µM; with MDA-MB-435 it was 14.4 µM. Moreover, the GI50 was 41.1 µM with PC-3 prostate, 28.9 µM in the assay on SK-MEL-28 melanoma, 54.7 µM with TK-10 renal and 32.5 µM in the assay with UACC-62 melanoma. The TGI is above 100 µM with 786-0 renal; 59.9 µM in the assay with HCC-2998 colon; above 100 µM in the assay on HCT-15 colon; above 100 µM with KM12 colon; above 100 µM in the assay with LOX IMVI melanoma; 35.4 µM in the assay with MDA-MB-435. In addition, the TGI in the assay on PC-3 prostate, in the assay on SK-MEL-28 melanoma, in the assay on TK-10 renal and in the assay on UACC-62 melanoma was above 100 µM each time.

For `CCOC(=O)C1=C(C)N(N)C(=S)NC1c1ccc(C)cc1` (stereo not given), the GI50 in the assay on 786-0 renal is above 100 µM; in the assay on HCC-2998 colon, 0.811 µM; in the assay on HCT-15 colon, 9.1 µM; in the assay on KM12 colon, 64.4 µM; with LOX IMVI melanoma it was 9.19 µM; in the assay on MDA-MB-435 it was 14.8 µM. In addition, the GI50 in the assay with PC-3 prostate is 32.8 µM; with SK-MEL-28 melanoma, 6.99 µM; in the assay with TK-10 renal, 40.2 µM; in the assay with UACC-62 melanoma it was 23.3 µM. The TGI in the assay on 786-0 renal is above 100 µM; in the assay with HCC-2998 colon, 27.1 µM; in the assay on HCT-15 colon it was above 100 µM; with KM12 colon it was above 100 µM; in the assay on LOX IMVI melanoma, above 100 µM; in the assay on MDA-MB-435 it was 72.2 µM. In addition, the TGI in the assay on PC-3 prostate, with SK-MEL-28 melanoma, in the assay on TK-10 renal and with UACC-62 melanoma was above 100 µM each time.

Consider `CN(C)Cc1c[nH]c2c1C(=O)c1c(c(O)c3ccccc3c1O)C2=O`, for which the GI50 with 786-0 renal is 10.5 µM; with HCC-2998 colon, 6.61 µM; with HCT-15 colon, 5.02 µM; in the assay on KM12 colon it was 4.66 µM; in the assay with LOX IMVI melanoma, 6.32 µM; with MDA-MB-435 it was 10.6 µM. The GI50 with PC-3 prostate was 5.71 µM; in the assay on SK-MEL-28 melanoma, 27.4 µM; with TK-10 renal, 5.08 µM; in the assay on UACC-62 melanoma, 16.3 µM. Also, the TGI with 786-0 renal came to 33.6 µM; with HCC-2998 colon, 21.9 µM; in the assay on HCT-15 colon, 16.2 µM; in the assay with KM12 colon, 20.9 µM; in the assay with LOX IMVI melanoma it was 19.5 µM; in the assay on MDA-MB-435, 23 µM. For the same molecule, the TGI in the assay with PC-3 prostate stood at 22.2 µM; in the assay on SK-MEL-28 melanoma it was 58 µM; with TK-10 renal, 19.7 µM; in the assay with UACC-62 melanoma, 30.1 µM.

For the molecule `CCN(CC)CC(C)(C)C(=O)/C=C/c1ccc(Cl)c(Cl)c1`, the GI50 in the assay on 786-0 renal was 1.62 µM; with HCC-2998 colon it was 1.61 µM; in the assay on HCT-15 colon, 1.42 µM; with KM12 colon it was 1.67 µM; with LOX IMVI melanoma, 0.774 µM; in the assay with MDA-MB-435 it was 1.6 µM. The GI50 with PC-3 prostate was 1.85 µM; with SK-MEL-28 melanoma, 1.57 µM; with TK-10 renal, 1.67 µM; with UACC-62 melanoma it was 1.66 µM. The TGI in the assay on 786-0 renal amounted to 3.04 µM; with HCC-2998 colon, 3.08 µM; with HCT-15 colon it was 2.92 µM; in the assay with KM12 colon it was 3.28 µM; in the assay with LOX IMVI melanoma, 2.03 µM; in the assay on MDA-MB-435, 3.28 µM. Further, the TGI in the assay with PC-3 prostate amounted to 3.51 µM; with SK-MEL-28 melanoma, 3.08 µM; with TK-10 renal it was 3.04 µM; in the assay on UACC-62 melanoma, 3.59 µM.

In the case of `O=c1[nH]c2cc(Cl)ccc2n1C1CCN(CCCC(c2ccc(F)cc2)c2ccc(F)cc2)CC1`, the GI50 in the assay with 786-0 renal was 1.46 µM; in the assay on HCC-2998 colon, 1.87 µM; in the assay on HCT-15 colon, 1.45 µM; in the assay on KM12 colon it was 1.68 µM; with LOX IMVI melanoma, 1.56 µM; in the assay on MDA-MB-435, 1.32 µM. Further, the GI50 was 1.69 µM in the assay with PC-3 prostate, 1.47 µM in the assay on SK-MEL-28 melanoma, 1.94 µM in the assay with TK-10 renal and 1.71 µM in the assay on UACC-62 melanoma. Moreover, the TGI with 786-0 renal is 2.79 µM; with HCC-2998 colon it was 3.49 µM; in the assay on HCT-15 colon, 2.76 µM; in the assay on KM12 colon, 3.27 µM; in the assay on LOX IMVI melanoma, 2.89 µM; with MDA-MB-435, 2.63 µM. Further, the TGI in the assay on PC-3 prostate is 4.4 µM; in the assay on SK-MEL-28 melanoma, 3.1 µM; in the assay on TK-10 renal it was 3.55 µM; in the assay on UACC-62 melanoma it was 3.13 µM.

In the case of `Cc1cc(NC(=O)c2ccc(C)c(Nc3nccc(-c4cccnc4)n3)c2)cc(-n2cnc(C)c2)c1`, the GI50 was 1.56 µM in the assay with 786-0 renal; 17.1 µM in the assay with HCC-2998 colon; 7.49 µM in the assay on HCT-15 colon; 4.83 µM in the assay on KM12 colon; 4.09 µM in the assay on LOX IMVI melanoma; 2.12 µM with MDA-MB-435. The GI50 with PC-3 prostate is 4.76 µM; in the assay on SK-MEL-28 melanoma, 1.71 µM; with TK-10 renal, 0.0882 µM; in the assay with UACC-62 melanoma, 2.92 µM. Further, the TGI with 786-0 renal is 6.12 µM; in the assay with HCC-2998 colon it was above 35.6 µM; in the assay with HCT-15 colon, above 27 µM; in the assay with KM12 colon it was 14.7 µM; in the assay on LOX IMVI melanoma it was 13 µM; in the assay with MDA-MB-435 it was 8.76 µM. Moreover, the TGI was 17.3 µM with PC-3 prostate, 6.19 µM in the assay on SK-MEL-28 melanoma, 2.2 µM in the assay with TK-10 renal and 11 µM in the assay on UACC-62 melanoma.

As for `Cc1n(Cc2ccc3ccccc3c2)cc[n+]1Cc1ccc2ccccc2c1`, the GI50 in the assay on 786-0 renal is 2.25 µM; with HCC-2998 colon, 0.717 µM; in the assay on HCT-15 colon it was 11.3 µM; with KM12 colon, 0.592 µM; with LOX IMVI melanoma, 0.951 µM; in the assay with MDA-MB-435 it was 0.544 µM. Further, the GI50 in the assay on PC-3 prostate was 1.06 µM; in the assay on SK-MEL-28 melanoma, 1.02 µM; with TK-10 renal, 1.77 µM; in the assay on UACC-62 melanoma, 0.843 µM. Moreover, the TGI in the assay with 786-0 renal amounted to 8.52 µM; with HCC-2998 colon it was 2.27 µM; in the assay on HCT-15 colon, 25.1 µM; with KM12 colon, 2.04 µM; with LOX IMVI melanoma it was 2.2 µM; in the assay on MDA-MB-435, 2.38 µM. Further, the TGI in the assay on PC-3 prostate is 11.6 µM; in the assay on SK-MEL-28 melanoma, 3.05 µM; with TK-10 renal, 5.1 µM; in the assay on UACC-62 melanoma, 2.42 µM.

For `CN1CCc2c(Sc3ccc(C(=O)NO)cc3)c3ccccc3n2C1`, the GI50 was 4.12 µM in the assay with 786-0 renal; 1.77 µM in the assay on HCC-2998 colon; 3.62 µM in the assay on HCT-15 colon; 1.72 µM in the assay on KM12 colon; 1.64 µM in the assay with LOX IMVI melanoma; 1.61 µM with MDA-MB-435. In addition, the GI50 with PC-3 prostate is 1.63 µM; with SK-MEL-28 melanoma it was 1.58 µM; in the assay with TK-10 renal, 2.62 µM; with UACC-62 melanoma, 1.62 µM. The TGI in the assay with 786-0 renal was found to be 15.3 µM; in the assay with HCC-2998 colon it was 3.86 µM; in the assay on HCT-15 colon, 13.4 µM; with KM12 colon it was 3.67 µM; in the assay on LOX IMVI melanoma, 3.57 µM; with MDA-MB-435 it was 3.34 µM. For the same molecule, the TGI with PC-3 prostate was 4.01 µM; in the assay on SK-MEL-28 melanoma, 3.98 µM; with TK-10 renal, 8.19 µM; with UACC-62 melanoma, 3.65 µM.

As for `Cc1sc2nc(NCCc3c[nH]c4ccc(Cl)cc34)[nH]c(=O)c2c1C`, the GI50 in the assay on 786-0 renal was 2.39 µM; in the assay on HCC-2998 colon, 2.39 µM; in the assay on HCT-15 colon it was 1.52 µM; in the assay with KM12 colon it was 2.17 µM; in the assay on LOX IMVI melanoma, 1.87 µM; in the assay on MDA-MB-435 it was 3.31 µM. Also, the GI50 is 2.05 µM in the assay with PC-3 prostate, 4.08 µM with SK-MEL-28 melanoma, 3.5 µM in the assay with TK-10 renal and 2.96 µM in the assay with UACC-62 melanoma. For the same molecule, the TGI in the assay with 786-0 renal was 6.23 µM; in the assay on HCC-2998 colon, 5.71 µM; in the assay on HCT-15 colon, 11.2 µM; in the assay with KM12 colon, 5.54 µM; in the assay on LOX IMVI melanoma, 3.68 µM; in the assay with MDA-MB-435, 11.3 µM. The TGI with PC-3 prostate stood at 8.91 µM; in the assay on SK-MEL-28 melanoma, 15.7 µM; with TK-10 renal, 11.5 µM; with UACC-62 melanoma, 12.7 µM.

For `Nc1nc(Nc2ccccc2)c2ncn(Cc3cc4c(cc3Br)OCO4)c2n1`, the GI50 is 0.0659 µM in the assay on 786-0 renal; 0.205 µM in the assay with HCC-2998 colon; 0.0416 µM in the assay with HCT-15 colon; 0.0418 µM with KM12 colon; 0.0563 µM in the assay with LOX IMVI melanoma; 0.0301 µM in the assay on MDA-MB-435. Moreover, the GI50 in the assay with PC-3 prostate is 0.0801 µM; in the assay with SK-MEL-28 melanoma, 0.524 µM; in the assay on TK-10 renal it was 0.114 µM; with UACC-62 melanoma, 0.0537 µM. The TGI in the assay with 786-0 renal is 16.2 µM; in the assay on HCC-2998 colon, above 32.7 µM; with HCT-15 colon it was 5.48 µM; with KM12 colon it was 21 µM; in the assay with LOX IMVI melanoma, above 100 µM; with MDA-MB-435 it was 0.129 µM. Also, the TGI stood at 46.9 µM in the assay with PC-3 prostate, 36.2 µM with SK-MEL-28 melanoma, 18.1 µM with TK-10 renal and 28.4 µM in the assay with UACC-62 melanoma.

For the origin of these results see PubChem BioAssay (NCI).
